ChEMBL document CHEMBL1137031, “Synthesis and antibacterial activity of C-6 carbamate ketolides, a novel series of orally active ketolide antibiotics” (2004)
Values after ≈ are worked out from the molar mass of the structure shown.

What was measured:
Staphylococcus aureus [1] = assay: Minimum inhibitory concentration against Staphylococcus aureus OC4172 in presence of mouse serum; format: functional
Staphylococcus aureus [2] = assay: Minimum inhibitory concentration against Staphylococcus aureus OC4172; format: functional
Haemophilus influenzae = assay: Minimum inhibitory concentration against Haemophilus influenzae OC4482
Streptococcus pneumoniae [3] = assay: Minimum inhibitory concentration against Streptococcus pneumoniae OC4051
Streptococcus pneumoniae [4] = assay: Minimum inhibitory concentration against Streptococcus pneumoniae OC4421
Streptococcus pneumoniae [5] = assay: Minimum inhibitory concentration against Streptococcus pneumoniae OC9132
[6] = system: Staphylococcus haemolyticus; assay: Minimum inhibitory concentration against Staphylococcus haemolyticus OC3882
[7] = system: Staphylococcus haemolyticus; assay: Minimum inhibitory concentration against Staphylococcus haemolyticus OC4545
Mus musculus [8] = assay: Percent survival of Staphylococcus aureus infected murine was tested after peroral injection of 20 mg/kg dose; format: functional; details: route oral
Mus musculus [9] = assay: Percent survival of Staphylococcus aureus infected murine was tested after subcutaneous injection of 10 mg/kg dose; format: functional; details: sc
Mus musculus [10] = assay: Effective dose against Staphylococcus aureus infected murine was tested after subcutaneous injection; format: functional; details: sc
Mus musculus [11] = organism: Mus musculus; assay: Effective dose against Staphylococcus aureus infected murine was tested after peroral injection; format: functional

Compound	MIC (Staphylococcus aureus [1])	MIC (Staphylococcus aureus [2])	MIC (Haemophilus influenzae)	MIC (Streptococcus pneumoniae [3])	MIC (Streptococcus pneumoniae [4])	MIC (Streptococcus pneumoniae [5])	MIC [6]	MIC [7]	survival at 20 mg/kg (Mus musculus [8])	survival at 10 mg/kg (Mus musculus [9])	ED50 (Mus musculus [10])	ED50 (Mus musculus [11])
CC[C@H]1OC(=O)C(C)C(=O)[C@H](C)[C@@H](O[C@@H]2O[C@H](C)C[C@H](N(C)C)[C@H]2O)[C@](C)(OC(=O)N/C=C/c2ccc(-c3ccncc3)cc2)C[C@@H](C)C(=O)[C@H](C)[C@H]2NC(=O)O[C@@]21C (some centres not stated)	2 µg/mL	0.5 µg/mL (≈ 0.609 µM)	8 µg/mL (≈ 9.74 µM)	0.5 µg/mL (≈ 0.609 µM)	0.12 µg/mL (≈ 0.146 µM)	0.03 µg/mL (≈ 0.0365 µM)	2 µg/mL (≈ 2.44 µM)	> 16 µg/mL				
CC[C@H]1OC(=O)C(C)C(=O)[C@H](C)[C@@H](O[C@@H]2O[C@H](C)C[C@H](N(C)C)[C@H]2O)[C@](C)(OC(=O)N/C=C/c2ccc3cccnc3c2)C[C@@H](C)C(=O)[C@H](C)[C@H]2NC(=O)O[C@@]21C (some centres not stated)	0.5 µg/mL	0.12 µg/mL (≈ 0.151 µM)	2 µg/mL (≈ 2.52 µM)	0.03 µg/mL (≈ 0.0377 µM)	0.03 µg/mL (≈ 0.0377 µM)	≤ 0.01 µg/mL	0.25 µg/mL (≈ 0.314 µM)	> 16 µg/mL	0%	40%		
CC[C@H]1OC(=O)C(C)C(=O)[C@H](C)[C@@H](O[C@@H]2O[C@H](C)C[C@H](N(C)C)[C@H]2O)[C@](C)(OC(=O)N/C=C/c2ccc(-c3cccnc3)cc2)C[C@@H](C)C(=O)[C@H](C)[C@H]2NC(=O)O[C@@]21C (some centres not stated)	1 µg/mL	0.25 µg/mL (≈ 0.305 µM)	4 µg/mL (≈ 4.87 µM)	0.12 µg/mL (≈ 0.146 µM)	0.25 µg/mL (≈ 0.305 µM)	0.03 µg/mL (≈ 0.0365 µM)	1 µg/mL (≈ 1.22 µM)	> 16 µg/mL				
CC[C@H]1OC(=O)C(C)C(=O)[C@H](C)[C@@H](O[C@@H]2O[C@H](C)C[C@H](N(C)C)[C@H]2O)[C@](C)(OC(=O)N/C=C/c2ccc(-n3ccnc3)cc2)C[C@@H](C)C(=O)[C@H](C)[C@H]2NC(=O)O[C@@]21C (some centres not stated)	0.25 µg/mL	0.12 µg/mL (≈ 0.148 µM)	4 µg/mL (≈ 4.94 µM)	0.12 µg/mL (≈ 0.148 µM)	0.25 µg/mL (≈ 0.309 µM)	≤ 0.01 µg/mL	1 µg/mL (≈ 1.23 µM)	> 16 µg/mL	0%	60%		
CC[C@H]1OC(=O)C(C)C(=O)[C@H](C)[C@@H](O[C@@H]2O[C@H](C)C[C@H](N(C)C)[C@H]2O)[C@](C)(OC(=O)N/C=C/c2ccc(-n3cccn3)cc2)C[C@@H](C)C(=O)[C@H](C)[C@H]2NC(=O)O[C@@]21C (some centres not stated)	0.25 µg/mL	0.12 µg/mL (≈ 0.148 µM)	4 µg/mL (≈ 4.94 µM)	0.06 µg/mL (≈ 0.0741 µM)	0.06 µg/mL (≈ 0.0741 µM)	0.03 µg/mL (≈ 0.037 µM)	0.12 µg/mL (≈ 0.148 µM)	> 16 µg/mL	60%	80%	7.1 mg/kg	> 30 mg/kg
CC[C@H]1OC(=O)C(C)C(=O)[C@H](C)[C@@H](O[C@@H]2O[C@H](C)C[C@H](N(C)C)[C@H]2O)[C@](C)(OC(=O)N/C=C/c2ccc(-c3ccccn3)cc2)C[C@@H](C)C(=O)[C@H](C)[C@H]2NC(=O)O[C@@]21C (some centres not stated)	0.5 µg/mL	0.12 µg/mL (≈ 0.146 µM)	4 µg/mL (≈ 4.87 µM)	0.06 µg/mL (≈ 0.0731 µM)	0.06 µg/mL (≈ 0.0731 µM)	0.03 µg/mL (≈ 0.0365 µM)	0.12 µg/mL (≈ 0.146 µM)	> 16 µg/mL	20%	80%		
CC[C@H]1OC(=O)C(C)C(=O)[C@H](C)[C@@H](O[C@@H]2O[C@H](C)C[C@H](N(C)C)[C@H]2O)[C@](C)(OC(=O)NCCCc2ccccc2)C[C@@H](C)C(=O)[C@H](C)[C@H]2NC(=O)O[C@@]21C (some centres not stated)	8 µg/mL	2 µg/mL (≈ 2.63 µM)	16 µg/mL (≈ 21.1 µM)	1 µg/mL (≈ 1.32 µM)	0.12 µg/mL (≈ 0.158 µM)	0.06 µg/mL (≈ 0.079 µM)	2 µg/mL (≈ 2.63 µM)	> 16 µg/mL				
CC[C@H]1OC(=O)C(C)C(=O)[C@H](C)[C@@H](O[C@@H]2O[C@H](C)C[C@H](N(C)C)[C@H]2O)[C@](C)(OC(=O)NCCc2ccccc2)C[C@@H](C)C(=O)[C@H](C)[C@H]2NC(=O)O[C@@]21C (some centres not stated)	2 µg/mL	1 µg/mL (≈ 1.34 µM)	8 µg/mL (≈ 10.7 µM)	2 µg/mL (≈ 2.68 µM)	0.12 µg/mL (≈ 0.161 µM)	0.25 µg/mL (≈ 0.335 µM)	4 µg/mL (≈ 5.36 µM)	> 16 µg/mL				
CC[C@H]1OC(=O)C(C)C(=O)[C@H](C)[C@@H](O[C@@H]2O[C@H](C)C[C@H](N(C)C)[C@H]2O)[C@](C)(OC(=O)N/C=C/c2ccccc2)C[C@@H](C)C(=O)[C@H](C)[C@H]2NC(=O)O[C@@]21C (some centres not stated)	2 µg/mL	0.25 µg/mL (≈ 0.336 µM)	4 µg/mL (≈ 5.38 µM)	0.5 µg/mL (≈ 0.672 µM)	0.06 µg/mL (≈ 0.0807 µM)	0.06 µg/mL (≈ 0.0807 µM)	4 µg/mL (≈ 5.38 µM)	> 16 µg/mL				
CC[C@H]1OC(=O)[C@H](C)C(=O)[C@H](C)[C@@H](O[C@@H]2O[C@H](C)C[C@H](N(C)C)[C@H]2O)[C@](C)(OC)C[C@@H](C)C(=O)[C@H](C)[C@H]2N(CCCCn3cnc(-c4cccnc4)c3)C(=O)O[C@]12C [TELITHROMYCIN]	0.5 µg/mL	0.12 µg/mL (≈ 0.148 µM)	2 µg/mL (≈ 2.46 µM)	0.06 µg/mL (≈ 0.0739 µM)	0.12 µg/mL (≈ 0.148 µM)	≤ 0.01 µg/mL	0.25 µg/mL (≈ 0.308 µM)	> 16 µg/mL			4.4 mg/kg	15 mg/kg
CC[C@H]1OC(=O)C(C)C(=O)[C@H](C)[C@@H](O[C@@H]2O[C@H](C)C[C@H](N(C)C)[C@H]2O)[C@](C)(OC(=O)N/C=C/c2ccc(-c3ccccc3)cc2)C[C@@H](C)C(=O)[C@H](C)[C@H]2NC(=O)O[C@@]21C (some centres not stated)	2 µg/mL	0.5 µg/mL (≈ 0.61 µM)	8 µg/mL (≈ 9.76 µM)	0.5 µg/mL (≈ 0.61 µM)	0.25 µg/mL (≈ 0.305 µM)	0.06 µg/mL (≈ 0.0732 µM)	1 µg/mL (≈ 1.22 µM)	> 16 µg/mL				
CC[C@H]1OC(=O)C(C)C(=O)[C@H](C)[C@@H](O[C@@H]2O[C@H](C)C[C@H](N(C)C)[C@H]2O)[C@](C)(OC(=O)Nc2ccccc2)C[C@@H](C)C(=O)[C@H](C)[C@H]2NC(=O)O[C@@]21C (some centres not stated)	1 µg/mL	2 µg/mL (≈ 2.79 µM)	8 µg/mL (≈ 11.1 µM)	8 µg/mL (≈ 11.1 µM)	0.06 µg/mL (≈ 0.0836 µM)	0.03 µg/mL (≈ 0.0418 µM)	> 16 µg/mL	> 16 µg/mL				
CC[C@H]1OC(=O)C(C)C(=O)[C@H](C)[C@@H](O[C@@H]2O[C@H](C)C[C@H](N(C)C)[C@H]2O)[C@](C)(OC(=O)N/C=C/c2ccc3ccccc3n2)C[C@@H](C)C(=O)[C@H](C)[C@H]2NC(=O)O[C@@]21C (some centres not stated)	0.5 µg/mL	0.25 µg/mL (≈ 0.314 µM)	4 µg/mL (≈ 5.03 µM)	0.03 µg/mL (≈ 0.0377 µM)	0.06 µg/mL (≈ 0.0755 µM)	≤ 0.01 µg/mL	0.25 µg/mL (≈ 0.314 µM)	> 16 µg/mL	25%	75%		
CC[C@H]1OC(=O)C(C)C(=O)[C@H](C)[C@@H](O[C@@H]2O[C@H](C)C[C@H](N(C)C)[C@H]2O)[C@](C)(OC(=O)NCc2ccccc2)C[C@@H](C)C(=O)[C@H](C)[C@H]2NC(=O)O[C@@]21C (some centres not stated)	8 µg/mL	4 µg/mL (≈ 5.47 µM)	16 µg/mL (≈ 21.9 µM)	8 µg/mL (≈ 10.9 µM)	0.25 µg/mL (≈ 0.342 µM)	1 µg/mL (≈ 1.37 µM)	> 16 µg/mL	> 16 µg/mL				
CC[C@H]1OC(=O)C(C)C(=O)[C@H](C)[C@@H](O[C@@H]2O[C@H](C)C[C@H](N(C)C)[C@H]2O)[C@](C)(OC(N)=O)C[C@@H](C)C(=O)[C@H](C)[C@H]2NC(=O)O[C@@]21C (some centres not stated)	1 µg/mL	4 µg/mL (≈ 6.23 µM)	2 µg/mL (≈ 3.12 µM)	> 16 µg/mL	2 µg/mL (≈ 3.12 µM)	2 µg/mL (≈ 3.12 µM)	> 16 µg/mL	> 16 µg/mL				
CC[C@H]1OC(=O)[C@H](C)[C@@H](O[C@H]2C[C@@](C)(OC)[C@@H](O)[C@H](C)O2)[C@H](C)[C@@H](O[C@@H]2O[C@H](C)C[C@H](N(C)C)[C@H]2O)[C@](C)(O)C[C@@H](C)C(=O)[C@H](C)[C@@H](O)[C@]1(C)O [ERYTHROMYCIN]	0.06 µg/mL	0.5 µg/mL (≈ 0.681 µM)	4 µg/mL (≈ 5.45 µM)	> 16 µg/mL	4 µg/mL (≈ 5.45 µM)	0.06 µg/mL (≈ 0.0818 µM)	> 16 µg/mL	> 16 µg/mL				
